# Test results taken from US20260191843A1, “METHODS AND MATERIALS FOR TREATING BURNS” (The Penn State Research Foundation, priority 2022, published 2026).
# “Also recorded” adds a separate entry of the source.
# Columns and labels:
# [1] = test system: deep-partial thickness burn wound on the mouse dorsum; experiment: Morphometric burn wound healing assessment at day 26 (H&E and Masson's trichrome staining); type: in vivo, wild-type C57BL/6 mouse
# Procedure: Place the 8-10-week-old wild-type C57BL/6 mouse on its side on a sterile paper sheet. Anesthesia was achieved and maintained with isoflurane utilizing an induced with an intraperitoneal injection of ketamine (60 mg/kg) and xylazine (4 mg/kg). An adequate depth of anesthesia was ensured via lack of a withdrawal reflex when a toe pinch was performed. The depth of anesthesia was monitored as well as respiration and mucous membrane color (pink: normal, pale: blood loss, blue: cyanosis). The surgeon(s) used sterile gloves, mask and a clean lab coat. Sterile surgical instruments (autoclaved) were used during all survival surgeries. The skin was prepared for creation of wound on the dorsal and side skin (from neck to tail) by shaving with a mechanical shaver and then applying a hair removal cream on the skin for 3-5 minutes. Hair was removed completely by gently wiping the skin with cotton balls soaked in warm water. Skin disinfection around the incision site was done using 70% ethanol and betadine for 3 times. Then, the dorsal skin was folded and raised cranially and caudally at the midline using index fingers and thumbs, and the animal was placed in a lateral position. The burn wound was created by contacting a 10 mm diameter brass heating device maintained at 100° C. to the mouse dorsum at a constant pressure. The device remained in contact with the skin for 4 seconds in order to create a deep-partial thickness burn. After burn wound creation, the wound site was photographed, the wound area was circled using permanent pen marker, and the wound surface was covered with a TEGADERM™ (3M) sterile transparent dressing. After surgery, mice were given SR Buprenorphine (0.05 mg/kg) for post-operative analgesia. Then, mice were placed in a clean cage on the heating pad for 30 minutes to help the recovery process. Immediately after the recovery, mice were randomly grouped and treated with either with 4-AP (systemic, ip) or saline (control). […]
# [2] = test system: deep-partial thickness burn wound on the mouse dorsum; experiment: Burn wound healing in mice: wound area and percentage of wound closure; type: in vivo, wild-type C57BL/6 mouse
# Procedure: Place the 8-10-week-old wild-type C57BL/6 mouse on its side on a sterile paper sheet. Anesthesia was achieved and maintained with isoflurane utilizing an induced with an intraperitoneal injection of ketamine (60 mg/kg) and xylazine (4 mg/kg). An adequate depth of anesthesia was ensured via lack of a withdrawal reflex when a toe pinch was performed. The depth of anesthesia was monitored as well as respiration and mucous membrane color (pink: normal, pale: blood loss, blue: cyanosis). The surgeon(s) used sterile gloves, mask and a clean lab coat. Sterile surgical instruments (autoclaved) were used during all survival surgeries. The skin was prepared for creation of wound on the dorsal and side skin (from neck to tail) by shaving with a mechanical shaver and then applying a hair removal cream on the skin for 3-5 minutes. Hair was removed completely by gently wiping the skin with cotton balls soaked in warm water. Skin disinfection around the incision site was done using 70% ethanol and betadine for 3 times. Then, the dorsal skin was folded and raised cranially and caudally at the midline using index fingers and thumbs, and the animal was placed in a lateral position. The burn wound was created by contacting a 10 mm diameter brass heating device maintained at 100° C. to the mouse dorsum at a constant pressure. The device remained in contact with the skin for 4 seconds in order to create a deep-partial thickness burn. After burn wound creation, the wound site was photographed, the wound area was circled using permanent pen marker, and the wound surface was covered with a TEGADERM™ (3M) sterile transparent dressing. After surgery, mice were given SR Buprenorphine (0.05 mg/kg) for post-operative analgesia. Then, mice were placed in a clean cage on the heating pad for 30 minutes to help the recovery process. Immediately after the recovery, mice were randomly grouped and treated with either with 4-AP (systemic, ip) or saline (control).
# Functional analysis of the burn wound area was performed by placing a transparent sheet on the surface of the circled wound, and placing a ruler close to the burn wound to capture photographs of individual wounds on 0, 3, 7, 10, 14, 18, 21, and 26 days. The wound size of each individual mice was measured and compared to zero day wound diameter from the circled sheet. The percentage of wound closure was calculated using this formula: (area of original wound-area of the actual burn wound)/area of original burn wound×100.
# [3] = 4-AP treated vs saline-treated mice
smiles,measurement,setting,value
"Nc1ccncc1 [4-AP, 4-aminopyridine]",collagen deposition in the healing wound (Masson's Trichrome),[1]; [3],elevated collagen deposition
same,thickness of newly formed epidermis within the healed wound (H&E),[1]; [3],significantly thicker
same,re-epithelialization,[1]; not completed in saline-treated mice,re-epithelialization was complete
same,acceleration of wound closure,"[2]; by day 3, systemic 4-AP vs saline, P between 0.01 and 0.05",significant increase in wound closure by day 3; also recorded: accelerated wound closure by day 3
same,closed wounds,"[2]; by day 26, systemic 4-AP",closed wounds by day 26
same,reduced wound area (relative to initial wound area),"[2]; day 5, systemic (ip) 4-AP, saline treated animals showed 25% expansion of wound area",5%
same,protection from expansion of wound size (necrosis and apoptosis at zone of stasis),[2]; systemic 4-AP vs saline,significant burn wound protection from expansion of wound; also recorded: significantly prevented expansion of wound size
same,burn wound closure and tissue regeneration as compared to control animals,[2]; systemic 4-AP vs systemic saline,improved burn wound closure and tissue regeneration
